Results from patent US10689367B2, “Triazole pyridyl compounds as agonists of the APJ receptor” (AMGEN INC., priority 2016, dated 2020).

Biological target: human APJ receptor (Homo sapiens (Human), UniProt P35414)
Experiment: [35S]GTPγS binding assay on membranes from CHO cells stably expressing human APJ receptor
Assay type: biochemical
Settings: membranes of CHO cells stably expressing human APJ receptor, read-out: Activity hAPJ SPA EC50 IP
Method in brief: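 Agonist EC50 values come from non-linear regression of mean data from several independent runs. Membranes of CHO cells stably expressing human APJ were incubated 90 min at room temperature with [35S]GTPγS in buffer with optimized GDP, MgCl2 and NaCl, then read on a microplate imager.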

human APJ receptor, sequence (P35414 whole entry): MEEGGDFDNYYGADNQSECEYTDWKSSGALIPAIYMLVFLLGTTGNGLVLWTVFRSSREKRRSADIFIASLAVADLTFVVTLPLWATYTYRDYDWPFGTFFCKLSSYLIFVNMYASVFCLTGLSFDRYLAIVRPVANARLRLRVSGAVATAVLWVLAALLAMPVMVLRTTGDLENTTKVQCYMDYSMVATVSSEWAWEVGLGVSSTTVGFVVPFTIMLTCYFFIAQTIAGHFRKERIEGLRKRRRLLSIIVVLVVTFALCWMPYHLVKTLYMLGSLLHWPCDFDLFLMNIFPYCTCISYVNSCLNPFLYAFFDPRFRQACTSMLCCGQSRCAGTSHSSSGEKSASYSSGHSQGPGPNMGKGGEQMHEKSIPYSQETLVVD

SMILES: COc1cccc(-c2nnc(NS(=O)(=O)[C@@H](C)[C@@H](OC(C)C)c3ncc(C)cn3)n2[C@@H](C)c2ncn(C)n2)n1 (single isomer, unassigned) [Example 234.0, (1S,2S)-N-(5-(6-methoxy-2-pyridinyl)-4-((1R)-1-(1-methyl-1H-1,2,4-triazol-3-yl)ethyl)-4H-1,2,4-triazol-3-yl)-1-(5-methyl-2-pyrimidinyl)-1-(2-propanyloxy)-2-propanesulfonamide or (1S,2S)-N-(5-(6-methoxy-2-pyridinyl)-4-((1S)-1-(1-methyl-1H-1,2,4-triazol-3-yl)ethyl)-4H-1,2,4-triazol-3-yl)-1-(5-methyl-2-pyrimidinyl)-1-(2-propanyloxy)-2-propanesulfonamide]
- EC50: 84 nM

SMILES: COc1cccc(-c2nnc(NS(=O)(=O)[C@@H](C)[C@H](OC)c3ncc(Cl)cn3)n2[C@@H](C)c2ncn(C)n2)n1 (single isomer, unassigned) [Example 235.0, (1R,2S)-1-(5-chloro-2-pyrimidinyl)-1-methoxy-N-(5-(6-methoxy-2-pyridinyl)-4-((1S)-1-(1-methyl-1H-1,2,4-triazol-3-yl)ethyl)-4H-1,2,4-triazol-3-yl)-2-propanesulfonamide or (1R,2S)-1-(5-chloro-2-pyrimidinyl)-1-methoxy-N-(5-(6-methoxy-2-pyridinyl)-4-((1R)-1-(1-methyl-1H-1,2,4-triazol-3-yl)ethyl)-4H-1,2,4-triazol-3-yl)-2-propanesulfonamide]
- EC50: 100 nM

SMILES: COc1cccc(-c2nnc(NS(=O)(=O)[C@@H](C)[C@H](OC)c3ncc(Cl)cn3)n2[C@@H](C)c2ncn(C)n2)n1 (single isomer, unassigned) [Example 236.0, (1R,2S)-1-(5-chloro-2-pyrimidinyl)-1-methoxy-N-(5-(6-methoxy-2-pyridinyl)-4-((1R)-1-(1-methyl-1H-1,2,4-triazol-3-yl)ethyl)-4H-1,2,4-triazol-3-yl)-2-propanesulfonamide or (1R,2S)-1-(5-chloro-2-pyrimidinyl)-1-methoxy-N-(5-(6-methoxy-2-pyridinyl)-4-((1S)-1-(1-methyl-1H-1,2,4-triazol-3-yl)ethyl)-4H-1,2,4-triazol-3-yl)-2-propanesulfonamide]
- EC50: 7.2 nM

SMILES: COc1cccc(-c2nnc(NS(=O)(=O)[C@@H](C)[C@H](C)c3ncc(Cl)cn3)n2[C@@H](C)c2ncn(C)n2)n1 (single isomer, unassigned) [Example 237.0, (2S,3R)-3-(5-chloro-2-pyrimidinyl)-N-(5-(6-methoxy-2-pyridinyl)-4-((1S)-1-(1-methyl-1H-1,2,4-triazol-3-yl)ethyl)-4H-1,2,4-triazol-3-yl)-2-butanesulfonamide or (2S,3R)-3-(5-chloro-2-pyrimidinyl)-N-(5-(6-methoxy-2-pyridinyl)-4-((1R)-1-(1-methyl-1H-1,2,4-triazol-3-yl)ethyl)-4H-1,2,4-triazol-3-yl)-2-butanesulfonamide]
- EC50: 130 nM

SMILES: COc1cccc(-c2nnc(NS(=O)(=O)[C@@H](C)[C@H](C)c3ncc(Cl)cn3)n2[C@@H](C)c2ncn(C)n2)n1 (single isomer, unassigned) [Example 238.0, (2S,3R)-3-(5-chloro-2-pyrimidinyl)-N-(5-(6-methoxy-2-pyridinyl)-4-((1R)-1-(1-methyl-1H-1,2,4-triazol-3-yl)ethyl)-4H-1,2,4-triazol-3-yl)-2-butanesulfonamide or (2S,3R)-3-(5-chloro-2-pyrimidinyl)-N-(5-(6-methoxy-2-pyridinyl)-4-((1S)-1-(1-methyl-1H-1,2,4-triazol-3-yl)ethyl)-4H-1,2,4-triazol-3-yl)-2-butanesulfonamide]
- EC50: 6.2 nM

SMILES: COc1cccc(-c2nnc(NS(=O)(=O)[C@@H](C)[C@@H](OC(C)C)c3ncc(C)cn3)n2[C@@H](C)c2nc(C)no2)n1 (single isomer, unassigned) [Example 239.0]
- EC50: 2.6 nM

SMILES: COc1cccc(-c2nnc(NS(=O)(=O)[C@@H](C)[C@@H](OC(C)C)c3ncc(C)cn3)n2[C@@H](C)c2nc(C)no2)n1 (single isomer, unassigned) [Example 240.0, (1S,2S)-N-(5-(6-methoxy-2-pyridinyl)-4-((1S)-1-(3-methyl-1,2,4-oxadiazol-5-yl)ethyl)-4H-1,2,4-triazol-3-yl)-1-(5-methyl-2-pyrimidinyl)-1-(2-propanyloxy)-2-propanesulfonamide or (1S,2S)-N-(5-(6-methoxy-2-pyridinyl)-4-((1R)-1-(3-methyl-1,2,4-oxadiazol-5-yl)ethyl)-4H-1,2,4-triazol-3-yl)-1-(5-methyl-2-pyrimidinyl)-1-(2-propanyloxy)-2-propanesulfonamide]
- EC50: 2 nM

SMILES: COc1cccc(-c2nnc(NS(=O)(=O)[C@@H](C)[C@@H](OC(C)C)c3ncc(C)cn3)n2[C@@H](C)c2ncc(C)o2)n1 (single isomer, unassigned) [Example 241.0, (1S,2S)-N-(5-(6-methoxy-2-pyridinyl)-4-((1S)-1-(5-methyl-1,3-oxazol-2-yl)ethyl)-4H-1,2,4-triazol-3-yl)-1-(5-methyl-2-pyrimidinyl)-1-(2-propanyloxy)-2-propanesulfonamide or (1S,2S)-N-(5-(6-methoxy-2-pyridinyl)-4-((1R)-1-(5-methyl-1,3-oxazol-2-yl)ethyl)-4H-1,2,4-triazol-3-yl)-1-(5-methyl-2-pyrimidinyl)-1-(2-propanyloxy)-2-propanesulfonamide]
- EC50: 7.4 nM

SMILES: COc1cccc(-c2nnc(NS(=O)(=O)[C@@H](C)[C@@H](OC(C)C)c3ncc(C)cn3)n2[C@@H](C)c2ncc(C)o2)n1 (single isomer, unassigned) [Example 242.0, (1S,2S)-N-(5-(6-methoxy-2-pyridinyl)-4-((1S)-1-(5-methyl-1,3-oxazol-2-yl)ethyl)-4H-1,2,4-triazol-3-yl)-1-(5-methyl-2-pyrimidinyl)-1-(2-propanyloxy)-2-propanesulfonamide or (1S,2S)-N-(5-(6-methoxy-2-pyridinyl)-4-((1S)-1-(5-methyl-1,3-oxazol-2-yl)ethyl)-4H-1,2,4-triazol-3-yl)-1-(5-methyl-2-pyrimidinyl)-1-(2-propanyloxy)-2-propanesulfonamide]
- EC50: 13 nM

SMILES: COc1cccc(-c2nnc(NS(=O)(=O)[C@@H](C)[C@H](OC)c3ncc(Cl)cn3)n2[C@@H](C)c2noc(C)n2)n1 (single isomer, unassigned) [Example 243.0, (1R,2S)-1-(5-chloro-2-pyrimidinyl)-1-methoxy-N-(5-(6-methoxy-2-pyridinyl)-4-((1S)-1-(5-methyl-1,2,4-oxadiazol-3-yl)ethyl)-4H-1,2,4-triazol-3-yl)-2-propanesulfonamide or (1R,2S)-1-(5-chloro-2-pyrimidinyl)-1-methoxy-N-(5-(6-methoxy-2-pyridinyl)-4-((1R)-1-(5-methyl-1,2,4-oxadiazol-3-yl)ethyl)-4H-1,2,4-triazol-3-yl)-2-propanesulfonamide]
- EC50: 3.7 nM

SMILES: COc1cccc(-c2nnc(NS(=O)(=O)[C@@H](C)[C@H](OC)c3ncc(Cl)cn3)n2[C@@H](C)c2noc(C)n2)n1 (single isomer, unassigned) [Example 244.0, (1R,2S)-1-(5-chloro-2-pyrimidinyl)-1-methoxy-N-(5-(6-methoxy-2-pyridinyl)-4-((1R)-1-(5-methyl-1,2,4-oxadiazol-3-yl)ethyl)-4H-1,2,4-triazol-3-yl)-2-propanesulfonamide or (1R,2S)-1-(5-chloro-2-pyrimidinyl)-1-methoxy-N-(5-(6-methoxy-2-pyridinyl)-4-((1S)-1-(5-methyl-1,2,4-oxadiazol-3-yl)ethyl)-4H-1,2,4-triazol-3-yl)-2-propanesulfonamide]
- EC50: 8.2 nM
